Reference: publication PMC7004565, “Nucleotide inhibition of the pancreatic ATP-sensitive K^+ channel explored with patch-clamp fluorometry” (eLife, 2020)
Like-named read-outs stand apart in the source and are kept apart here.

Tests used:
[1] = biological target: T1, Kir6.2*-GFP + SUR-K205A (Homo sapiens, UniProt Q14654); assay: Bayesian MWC-type model fits to combined patch-clamp fluorometry data; format: biochemical; settings: for Kd: read-out: KA (intrinsic binding affinity to the closed state) (converted)
T1 construct: ANAP labelling is specific and only full-length Kir6.2 is expressed at the cell membrane; expressed in transfected cells; host or cells: HEK-293T
Source text: (§1) Our simultaneous binding and current measurements were well fit with a Monod-Wyman-Changeux (MWC)-type model (Figure 2D,E; [Monod et al., 1965]) which has been previously proposed to explain KATP channel inhibition ([Enkvetchakul and Nichols, 2003]; [Craig et al., 2008]; [Vedovato et al., 2015]). In our MWC-type model, each ligand binding event ( KA ) is independent and each bound ligand favours the closed state by the same factor ( D ). Simultaneous measurement of binding (fluorescence) and gating (current) allowed us to obtain well constrained fits to our model. To obtain free parameter ( L , KA , D ) estimates and verify that each parameter was well and uniquely determined, we employed a Bayesian Markov chain Monte Carlo (MCMC) method previously employed by [Hines et al. (2014)]. Using this approach, we constructed posterior probability distributions for the free parameters of our MWC-type model (Figure 2F, Table 3). […] Our estimate of L was quite low and broadly distributed. We repeated our fits with L fixed to a value consistent with previous single channel measurements (0.8, Popen=0.45; [John et al., 1998]; [Enkvetchakul et al., 2000]; [Ribalet et al., 2006]). This had only a very small effect on our estimates of D and KA (Figure 2—figure supplement 1). The broad distribution of L in our fit may represent current rundown which occurs during our patch-clamp recordings and is expected to affect the open-closed equilibrium.
(§2) In addition to the full MWC-type model we considered alternate models (Figure 2—figure supplement 2). These included a model in which only the first binding event influences the open-closed equilibrium of the channel (single-binding model; Figure 2—figure supplement 2B, Table 3), and an MWC-style model with an additional parameter C to allow for direct negative cooperativity between binding sites (negative cooperativity model; Figure 2—figure supplement 2C, Table 3). The single-binding model yielded very similar parameter estimates to our full MWC-type model (Figure 2—figure supplement 2D, Table 3). This is a consequence of D being so low that even in the MWC-type model most channels are closed when only a single nucleotide is bound. The cooperative model improved our fits, but not enough to justify the inclusion of an additional free parameter (see Discussion).
(§3) The MWC-type models considered (Figure 2 and Figure 2—figure supplement 2) were formulated as follows:(3) F/Fmax=KA[TNPATP](1+KA[TNPATP])^3+LDKA[TNPATP](1+DKA[TNPATP])^3/(1+KA[TNPATP])^4+L(1+DKA[TNPATP])^4 (4) open channels/total channels=L(1+DKA[TNPATP])^4/(1+KA[TNPATP])^4+L(1+DKA[TNPATP])^4
(§4) The first was similar to the MWC-type model, except that the channels close after one molecule of TNP-ATP binding with subsequent binding events having no effect.(7) F/Fmax=LDKA[TNPATP](1+3KA[TNPATP]+3KA2[TNPATP]^2+KA3[TNPATP]^3)+KA[TNPATP](1+KA[TNPATP])^3/L(1+4DKA[TNPATP]+6DKA2[TNPATP]^2+4DKA3[TNPATP]^3+DKA4[TNPATP]^4)+(1+KA[TNPATP])^4 (8) I/Imax=L(1+4DKA[TNPATP]+6DKA2[TNPATP]^2+4DKA3[TNPATP]^3+DKA4[TNPATP]^4)/L(1+4DKA[TNPATP]+6DKA2[TNPATP]^2+4DKA3[TNPATP]^3+DKA4[TNPATP]^4)+(1+KA[TNPATP])^4⋅1+L/L
(§5) The second alternate model was the same as the full MWC model, but with an additional term C describing binding cooperativity between Kir6.2 subunits.(9) F/Fmax=LDKA[TNPATP](1+3CDKA[TNPATP]+3C^2D^2KA2[TNPATP]^2+C^3D^3KA3[TNPATP]^3)+KA[TNPATP](1+3CKA[TNPATP])+3C^2KA2[TNPATP]^2+C^3KA3[TNPATP]^3)/L(1+4DKA[TNPATP]+6CD^2KA2[TNPATP]^2+4C^2D^3KA3[TNPATP]^3+C^3D^4KA4[TNPATP]^4)+1+4KA[TNPATP]+6CKA2[TNPATP]^2+4C^2KA3[TNPATP]^3+C^3KA4[TNPATP]^4 (10) I/Imax=L(1+4DKA[TNPATP]+6CD^2KA2[TNPATP]^2+4C^2D^3KA3[TNPATP]^3+C^3D^4KA4[TNPATP]^4)/L(1+4DKA[TNPATP]+6CD^2KA2[TNPATP]^2+4C^2D^3KA3[TNPATP]^3+C^3D^4KA4[TNPATP]^4)+1+4KA[TNPATP]+6C^2KA2[TNPATP]^2+4C^2KA3[TNPATP]^3+C^3KA4[TNPATP]^4⋅1+L/L […]

[2] = biological target: T2, Kir6.2*-GFP + SUR-K205E (Homo sapiens, UniProt Q14654); assay: as above; format: biochemical; settings: for Kd: read-out: KA (intrinsic binding affinity to the closed state) (converted)
T2 construct: ANAP labelling is specific and only full-length Kir6.2 is expressed at the cell membrane; expressed in transfected cells; host or cells: HEK-293T
Source text: as §1, §2, §3, §4, §5

[3] = Full MWC model, median estimate
[4] = Single-site (single-binding) model

T2 sequence (Q14654 whole entry, stated change not applied): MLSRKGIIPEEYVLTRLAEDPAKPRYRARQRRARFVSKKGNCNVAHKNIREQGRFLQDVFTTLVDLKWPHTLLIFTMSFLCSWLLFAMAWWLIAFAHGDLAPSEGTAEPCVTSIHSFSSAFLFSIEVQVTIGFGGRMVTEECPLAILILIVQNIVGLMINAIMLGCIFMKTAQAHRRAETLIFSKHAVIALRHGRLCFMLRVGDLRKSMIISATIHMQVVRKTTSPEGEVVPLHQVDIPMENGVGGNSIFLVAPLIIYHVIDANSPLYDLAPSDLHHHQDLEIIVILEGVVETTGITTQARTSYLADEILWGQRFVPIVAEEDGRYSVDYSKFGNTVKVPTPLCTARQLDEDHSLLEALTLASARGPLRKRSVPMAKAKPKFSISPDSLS
T2 sequence (Q09428 whole entry K205E partner): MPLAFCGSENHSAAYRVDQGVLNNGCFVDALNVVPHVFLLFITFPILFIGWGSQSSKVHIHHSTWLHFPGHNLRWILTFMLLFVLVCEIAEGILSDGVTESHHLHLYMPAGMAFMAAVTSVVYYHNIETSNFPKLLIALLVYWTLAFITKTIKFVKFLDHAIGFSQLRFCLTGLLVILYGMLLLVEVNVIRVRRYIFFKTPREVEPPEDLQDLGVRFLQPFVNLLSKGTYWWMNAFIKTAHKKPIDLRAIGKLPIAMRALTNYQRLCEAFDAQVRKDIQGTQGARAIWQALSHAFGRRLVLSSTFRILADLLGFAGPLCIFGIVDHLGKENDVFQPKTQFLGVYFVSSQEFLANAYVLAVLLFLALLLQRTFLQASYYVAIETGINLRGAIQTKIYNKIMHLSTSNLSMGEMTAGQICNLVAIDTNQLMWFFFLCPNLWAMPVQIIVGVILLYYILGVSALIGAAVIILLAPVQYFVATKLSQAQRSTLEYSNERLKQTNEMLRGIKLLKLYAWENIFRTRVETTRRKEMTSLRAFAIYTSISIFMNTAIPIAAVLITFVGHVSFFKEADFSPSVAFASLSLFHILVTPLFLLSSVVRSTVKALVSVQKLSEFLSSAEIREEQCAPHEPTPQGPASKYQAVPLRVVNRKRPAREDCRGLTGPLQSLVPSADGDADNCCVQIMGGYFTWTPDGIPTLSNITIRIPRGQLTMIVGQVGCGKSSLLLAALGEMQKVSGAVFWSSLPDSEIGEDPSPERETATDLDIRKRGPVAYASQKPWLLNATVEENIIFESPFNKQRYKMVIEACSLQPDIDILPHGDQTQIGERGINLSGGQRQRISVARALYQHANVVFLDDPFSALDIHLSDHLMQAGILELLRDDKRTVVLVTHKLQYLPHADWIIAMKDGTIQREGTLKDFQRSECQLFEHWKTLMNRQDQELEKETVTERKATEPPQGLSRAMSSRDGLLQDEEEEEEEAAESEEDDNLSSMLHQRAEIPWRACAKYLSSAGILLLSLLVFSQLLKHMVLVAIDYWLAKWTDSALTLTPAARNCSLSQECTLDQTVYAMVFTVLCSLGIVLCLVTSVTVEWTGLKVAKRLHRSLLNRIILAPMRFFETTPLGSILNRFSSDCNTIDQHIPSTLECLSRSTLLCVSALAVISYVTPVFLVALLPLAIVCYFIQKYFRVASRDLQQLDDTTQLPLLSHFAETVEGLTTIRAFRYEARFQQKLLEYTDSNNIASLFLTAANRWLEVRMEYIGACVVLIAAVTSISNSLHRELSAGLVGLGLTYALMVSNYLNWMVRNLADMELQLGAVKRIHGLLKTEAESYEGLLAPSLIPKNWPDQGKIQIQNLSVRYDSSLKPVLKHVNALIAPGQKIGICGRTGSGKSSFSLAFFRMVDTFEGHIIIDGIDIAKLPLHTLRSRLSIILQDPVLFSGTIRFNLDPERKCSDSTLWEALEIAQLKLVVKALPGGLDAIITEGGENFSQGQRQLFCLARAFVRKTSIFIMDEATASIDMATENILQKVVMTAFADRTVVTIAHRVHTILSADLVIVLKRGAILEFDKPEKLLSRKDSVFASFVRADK
T1 sequence (Q14654 whole entry, stated change not applied): as the sequence (Q14654 whole entry, stated change not applied) above
T1 sequence (Q09428 whole entry K205A partner): as the sequence (Q09428 whole entry K205E partner) above, with E205A counted along it

Nc1ncnc2c1ncn2[C@@H]1O[C@H](COP(=O)(O)OP(=O)(O)OP(=O)(O)O)[C@H]2OC3(O[C@H]21)C([N+](=O)[O-])=CC(=[N+]([O-])[O-])C=C3[N+](=O)[O-] (stereo partly shown) [TNP-ATP, trinitrophenyl-ATP]
D (factor by which nucleotide binding favours channel closure) [1, 3]: 0.55 | L (unliganded open-closed equilibrium constant) [1, 3]: −0.37 log10 | Kd [1, 3]: 174 µM | C (binding cooperativity between Kir6.2 subunits) ([1]; Negative cooperativity model): 0.35 | D (factor by which nucleotide binding favours channel closure) ([1]; Negative cooperativity model): 0.52 | L (unliganded open-closed equilibrium constant) ([1]; Negative cooperativity model): −0.16 log10 | Kd ([1]; Negative cooperativity model): 79.4 µM | D (factor by which nucleotide binding favours channel closure) [1, 4]: 0.18 | L (unliganded open-closed equilibrium constant) [1, 4]: −0.25 log10 | Kd [1, 4]: 240 µM | D (factor by which nucleotide binding favours channel closure) [2, 3]: 0.62 | L (unliganded open-closed equilibrium constant) [2, 3]: −0.18 log10 | Kd [2, 3]: 398 µM | C (binding cooperativity between Kir6.2 subunits) ([2]; Negative cooperativity model): 0.45 | D (factor by which nucleotide binding favours channel closure) ([2]; Negative cooperativity model): 0.58 | Kd ([2]; Negative cooperativity model): 195 µM | D (factor by which nucleotide binding favours channel closure) [2, 4]: 0.30 | L (unliganded open-closed equilibrium constant) [2, 4]: −0.19 log10 | Kd [2, 4]: 490 µM
